pIC50: −log10 of the molar value. “And” between values parts separate entries of the source, which are not always exact repeats. Identical values can stand only once. Each block holds one molecule with its values, some of them ahead of it.
Test system: 496974-208-R-J2-PDC complex spheroids, growth % test/control
Assay: Anticancer human tumor 496974-208-R-J2-PDC patient-derived pancreatic carcinoma cell line growth inhibition [CLK]
Settings: for viability, T/C: stronger effect = lower value
Outline: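 Multi-cell-type spheroids combined patient-derived tumor cells with HUVEC endothelial cells and human mesenchymal stem cells. Paired agents were dosed in half-log steps down from about clinical Cmax, or from 10 microM where Cmax was unknown.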

[1] = curve of first compound, second compound 0.0316 µM
[2] = curve of first compound, second compound 0.1 µM
[3] = curve of first compound, second compound 0.316 µM
[4] = curve of first compound, second compound 1 µM
[5] = curve of first compound, second compound 3.16 µM
[6] = curve of first compound, second compound 10 µM
[7] = second compound 0.0316 µM, first compound 0.0316 µM
[8] = second compound 0.0316 µM, first compound 0.1 µM
[9] = second compound 0.0316 µM, first compound 0.316 µM
[10] = second compound 0.0316 µM, first compound 1 µM
[11] = second compound 0.0316 µM, first compound 3.16 µM
[12] = second compound 0.0316 µM, first compound 10 µM
[13] = second compound 0.1 µM, first compound 0.0316 µM
[14] = second compound 0.1 µM, first compound 0.1 µM
[15] = second compound 0.1 µM, first compound 0.316 µM
[16] = second compound 0.1 µM, first compound 1 µM
[17] = second compound 0.1 µM, first compound 3.16 µM
[18] = second compound 0.1 µM, first compound 10 µM
[19] = second compound 0.316 µM, first compound 0.0316 µM
[20] = second compound 0.316 µM, first compound 0.1 µM
[21] = second compound 0.316 µM, first compound 0.316 µM
[22] = second compound 0.316 µM, first compound 1 µM
[23] = second compound 0.316 µM, first compound 3.16 µM
[24] = second compound 0.316 µM, first compound 10 µM
[25] = second compound 1 µM, first compound 0.0316 µM
[26] = second compound 1 µM, first compound 0.1 µM
[27] = second compound 1 µM, first compound 0.316 µM
[28] = second compound 1 µM, first compound 1 µM
[29] = second compound 1 µM, first compound 3.16 µM
[30] = second compound 1 µM, first compound 10 µM
[31] = second compound 3.16 µM, first compound 0.0316 µM
[32] = second compound 3.16 µM, first compound 0.1 µM
[33] = second compound 3.16 µM, first compound 0.316 µM
[34] = second compound 3.16 µM, first compound 1 µM
[35] = second compound 3.16 µM, first compound 3.16 µM
[36] = second compound 3.16 µM, first compound 10 µM
[37] = second compound 10 µM, first compound 0.0316 µM
[38] = second compound 10 µM, first compound 0.1 µM
[39] = second compound 10 µM, first compound 0.316 µM
[40] = second compound 10 µM, first compound 1 µM
[41] = second compound 10 µM, first compound 3.16 µM
[42] = second compound 10 µM, first compound 10 µM
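Also: spheroids exposed to the drugs for 7 days before readout.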
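For viability, T/C in this document: 100% = DMSO vehicle control wells.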

pIC50 [1]: < 6.52
pIC50 [2]: < 6.52
pIC50 [3]: < 6.52
pIC50 [4]: 6.82
pIC50 [5]: 6.91
pIC50 [6]: 7.12
SMILES: C=CC(=O)Nc1cc(Nc2nccc(-c3cn(C)c4ccccc34)n2)c(OC)cc1N(C)CCN(C)C + CNC(=O)c1ccc(Nc2nc(OC3CCCC3)c3c(-c4ccc5nc(C)oc5c4)c[nH]c3n2)c(OC)c1
viability, T/C (second compound 0.0316 µM, first compound 0.000949 µM): 108%
viability, T/C (second compound 0.0316 µM, first compound 0.003 µM): 99.3%
viability, T/C (second compound 0.0316 µM, first compound 0.00949 µM): 88%
viability, T/C (second compound 0.0316 µM, first compound 0.03 µM): 96.5%
viability, T/C (second compound 0.0316 µM, first compound 0.0949 µM): 90.2%
viability, T/C (second compound 0.0316 µM, first compound 0.3 µM): 71.7%
viability, T/C (second compound 0.1 µM, first compound 0.000949 µM): 80.6%
viability, T/C (second compound 0.1 µM, first compound 0.003 µM): 89.5%
viability, T/C (second compound 0.1 µM, first compound 0.00949 µM): 67.1%
viability, T/C (second compound 0.1 µM, first compound 0.03 µM): 72.8%
viability, T/C (second compound 0.1 µM, first compound 0.0949 µM): 70%
viability, T/C (second compound 0.1 µM, first compound 0.3 µM): 53.1%
viability, T/C (second compound 0.316 µM, first compound 0.000949 µM): 81.1%
viability, T/C (second compound 0.316 µM, first compound 0.003 µM): 77.4%
viability, T/C (second compound 0.316 µM, first compound 0.00949 µM): 85.2%
viability, T/C (second compound 0.316 µM, first compound 0.03 µM): 74.5%
viability, T/C (second compound 0.316 µM, first compound 0.0949 µM): 60.4%
viability, T/C (second compound 0.316 µM, first compound 0.3 µM): 51.2%
viability, T/C (second compound 1 µM, first compound 0.000949 µM): 76.7%
viability, T/C (second compound 1 µM, first compound 0.003 µM): 70.2%
viability, T/C (second compound 1 µM, first compound 0.00949 µM): 66%
viability, T/C (second compound 1 µM, first compound 0.03 µM): 65.1%
viability, T/C (second compound 1 µM, first compound 0.0949 µM): 57.2%
viability, T/C (second compound 1 µM, first compound 0.3 µM): 40.9%
viability, T/C (second compound 3.16 µM, first compound 0.000949 µM): 63.4%
viability, T/C (second compound 3.16 µM, first compound 0.003 µM): 64.1%
viability, T/C (second compound 3.16 µM, first compound 0.00949 µM): 65.6%
viability, T/C (second compound 3.16 µM, first compound 0.03 µM): 57.8%
viability, T/C (second compound 3.16 µM, first compound 0.0949 µM): 51.7%
viability, T/C (second compound 3.16 µM, first compound 0.3 µM): 41.1%
viability, T/C (second compound 10 µM, first compound 0.000949 µM): 60.3%
viability, T/C (second compound 10 µM, first compound 0.003 µM): 57.9%
viability, T/C (second compound 10 µM, first compound 0.00949 µM): 57.5%
viability, T/C (second compound 10 µM, first compound 0.03 µM): 51.3%
viability, T/C (second compound 10 µM, first compound 0.0949 µM): 51.4%
viability, T/C (second compound 10 µM, first compound 0.3 µM): 30.4%

pIC50 [1]: 5.14
pIC50 [2]: 5.21
pIC50 [3]: 5.59
pIC50 [4]: 5.77
pIC50 [5]: 5.87
pIC50 [6]: 6.51
SMILES: COc1ccc([C@@H](O)c2cc(-c3ncnc4cc(N5CCOCC5)ccc34)c(F)cc2Cl)nn1 + CNC(=O)c1ccc(Nc2nc(OC3CCCC3)c3c(-c4ccc5nc(C)oc5c4)c[nH]c3n2)c(OC)c1
viability, T/C [7]: 102%
viability, T/C [8]: 88.6%
viability, T/C [9]: 89.4%
viability, T/C [10]: 88.7%
viability, T/C [11]: 76.1%
viability, T/C [12]: 40.1%
viability, T/C [13]: 78.5%
viability, T/C [14]: 75.8%
viability, T/C [15]: 83.9%
viability, T/C [16]: 75.9%
viability, T/C [17]: 62.3%
viability, T/C [18]: 41.1%
viability, T/C [19]: 71%
viability, T/C [20]: 85.1%
viability, T/C [21]: 68.9%
viability, T/C [22]: 67.1%
viability, T/C [23]: 46.5%
viability, T/C [24]: 20.4%
viability, T/C [25]: 72%
viability, T/C [26]: 64.2%
viability, T/C [27]: 65.1%
viability, T/C [28]: 58.1%
viability, T/C [29]: 41.6%
viability, T/C [30]: 23.2%
viability, T/C [31]: 62.9%
viability, T/C [32]: 68%
viability, T/C [33]: 59.5%
viability, T/C [34]: 56.3%
viability, T/C [35]: 35.6%
viability, T/C [36]: 17.9%
viability, T/C [37]: 59.7%
viability, T/C [38]: 55.8%
viability, T/C [39]: 50.2%
viability, T/C [40]: 42.9%
viability, T/C [41]: 27.3%
viability, T/C [42]: 14.2%

IC50 (compound alone, run of 09/18/2023): 171 nM [middle of 11 runs]
SMILES: CN1CCN(c2cc(C(=O)Nc3cc4cc(-c5cnn(C)c5)ccc4cn3)ccn2)CC1
viability, T/C (compound 0.0316 µM): 103% [middle of 12 runs]
viability, T/C (compound 0.1 µM): 87.9% [middle of 12 runs]
viability, T/C (compound 0.316 µM): 6.96% [middle of 11 runs]
viability, T/C (compound 1 µM): 1.74% [middle of 12 runs]
viability, T/C (compound 3.16 µM): 0.79% [middle of 12 runs]
viability, T/C (compound 10 µM): 0.34% [middle of 8 runs]

pIC50 (curve of compound): 6.92 and 6.75
SMILES: COc1cccc2c1C(=O)c1c(O)c3c(c(O)c1C2=O)CC(O)(C(=O)CO)CC3OC1CC(N)C(O)C(C)O1 (stereo not given)
viability, T/C (compound 0.0316 µM): 73.2% and 85.7%
viability, T/C (compound 0.1 µM): 53.8% and 61.2%
viability, T/C (compound 0.316 µM): 26% and 39.9%
viability, T/C (compound 1 µM): 2.82% and 3.77%
viability, T/C (compound 3.16 µM): 0.71% and 0.67%
viability, T/C (compound 10 µM): 1.39% and 0.57%

SMILES: Nc1ccccc1NC(=O)c1ccc(CNC(=O)OCc2cccnc2)cc1 + CN1CCN(c2cc(C(=O)Nc3cc4cc(-c5cnn(C)c5)ccc4cn3)ccn2)CC1
pIC50 [1]: 5.37
pIC50 [2]: 5.36
pIC50 [3]: > 7.50
pIC50 [4]: > 7.50
pIC50 [5]: > 7.50
pIC50 [6]: > 7.50
viability, T/C [7]: 105%
viability, T/C [8]: 101%
viability, T/C [9]: 94.3%
viability, T/C [10]: 81.4%
viability, T/C [11]: 73.2%
viability, T/C [12]: 0.89%
viability, T/C [13]: 77.5%
viability, T/C [14]: 78.9%
viability, T/C [15]: 80.3%
viability, T/C [16]: 69.2%
viability, T/C [17]: 69.4%
viability, T/C [18]: 0.6%
viability, T/C [19]: 6.28%
viability, T/C [20]: 4.96%
viability, T/C [21]: 4.64%
viability, T/C [22]: 3.64%
viability, T/C [23]: 2.12%
viability, T/C [24]: 0.13%
viability, T/C [25]: 0.53%
viability, T/C [26]: 0.32%
viability, T/C [27]: 0.35%
viability, T/C [28]: 0.18%
viability, T/C [29]: 0.21%
viability, T/C [30]: 0.21%
viability, T/C [31]: 0.5%
viability, T/C [32]: 0.4%
viability, T/C [33]: 0.39%
viability, T/C [34]: 0.21%
viability, T/C [35]: 0.2%
viability, T/C [36]: 1.32%
viability, T/C [37]: 0.22%
viability, T/C [38]: 0.23%
viability, T/C [39]: 0.27%
viability, T/C [40]: 0.22%
viability, T/C [41]: 0.24%
viability, T/C [42]: 1.53%
